Experimental data taken from patent US20060142188A1 (Memory Pharmaceuticals Corporation, priority 2003, published 2006).

Key:
[1] = molecular target: T1, mutant (L270T) alpha7 nAchR (Macaca mulatta, UniProt Q866A2, L270T); assay: FLIPR functional measurement of mutant mkα7/L270T stably expressed in QM7 cells; format: cell-based, rhesus monkey; settings: Fluo-3AM, FIG. 7
T1 construct: expressed in transfected cells
Method: (§1) QM 7 cells were routinely grown as monolayers in minimum essential medium 199 supplemented with 5% FBS, 2% tryptose phosphate broth, 1% DMSO, penicillin (100 IU/ml) and were passaged every 3-4 days. Transfections with either rhesus monkey wild type alpha7 nAchR (mkα7) or mutant alpha7 nAchR (mkα7/L270T) were performed using Lipofectamine PLUS Kit (Invitrogen). Twenty-four hours after the transfection, cells were split for stable selection with 1 mg/ml G418. Single colonies were isolated and propagated. The expression of mkα7/L270T was identified with FLIPR for fluorescence changes after addition of agonist. The expression of mkα7 was identified by radioligand binding to [^3H]-methyllycaconitine (Virginio, C., A., Giacometti, A. et al. (2002). Pharmacological properties of rat alpha7 nicotinic receptors expressed in native and recombinant cell systems, Eur, J. Pharmacol. 445(3), 153-161.)
Cells were seeded into 96 well black wall and clear-bottom plates (Costar) coated with poly-D-lysine at a density of 20,000 cells per well and cultured overnight. […] The fluorescence was monitored (λex=488 […]) for three minutes immediately after the compound addition. The relative fluorescence unit (RFU) was measured as peak fluorescence intensity minus basal fluorescence intensity. […]

[2] = molecular target: T2, rhesus monkey wild-type alpha-7 nACh receptor (Macaca mulatta, UniProt Q866A2); assay: Patch clamp net charge analysis of wild-type mkα7 in stably transfected QM7 cells; format: cell-based; settings: wild-type alpha-7 clone #1, dose response curve, FIG. 8, normalized to 1 mM ACh
T2 construct: expressed in transfected cells
Method: as §1
Stably transfected QM7 cells grown on cover slips and expressing wild-type rhesus monkey alpha7 receptors were incubated at 37° C. in the presence of 5% CO2. Individual cover slips were removed for function analysis and placed in a recording buffer consisting of 140 mM NaCl, 5 mM KCl, 10 mM HEPES, 2 mM CaCl2, 1 mM MgCl2, 100 mM glucose titrated to pH 7.3 and perfused at 2-3 ml/min. […]

EC50 compared with nicotine [1]	EC50 [2] [µM]	Compound
better or comparable to that of nicotine	–	COc1ccc(/C=C2\CCCN=C2c2cccnc2)c(OC)c1 [GTS-21]
–	38	CC(=O)OCC[N+](C)(C)C [acetylcholine]
